Measurements: patent US9862717B2 (Merck Patent GmbH, priority 2014, dated 2018)
pIC50: −log10 of the molar value. Read-outs that look alike come from different tables or passages of the source.

Biological target: T1, CDK8/CycC (Homo sapiens, UniProt P49336)
T1 construct: purchased Invitrogen PV4402
Assay: FRET based Lanthascreen binding competition assay for CDK8 inhibitory activity
Conditions: CDK8 co-expressed with CycC, class symbols; for pIC50: read-out: IC50; for IC50: IC50 [μM]
Source text: Biochemical Assay for CDK8 Inhibitory Activity FRET based Lanthascreen binding competition assay: A dye-labeled ATP competitive probe served as a FRET acceptor upon binding to CDK8 labeled with a strepavidin -Eu-chelate (via a biotinylated anti His antibody). The result was a fluorescence signal at 647 nm. In case this probe was competed by an inhibitor, such a signal cannot be generated any more. The CDK8 used for this assay was a protein co-expressed with CycC. The assay procedure for an assay in a 1536 well plate was performed according to the following: 2 μL CDK8/biotin-anti-His Ab/SA-Eu mix in Assay buffer were pipetted into the wells of a micro plate. 1 μL compound in 20 mM Hepes buffer/5% DMSO was added. The plate was shaken for 30 sec and incubated for 20 min at RT. 2 μL Alexa647-probe in assay buffer were added. The plate was shaken for 30 sec again and incubated for 60 min at RT in the dark. Then the plate was read out on a Perkin Elmer Envision (mode LANCE/TRF, excitation 340 nm emission 650 nm). […] The readouts were fitted to IC50 curves using Genedata Condoseo.

T1 sequence (P49336 whole entry): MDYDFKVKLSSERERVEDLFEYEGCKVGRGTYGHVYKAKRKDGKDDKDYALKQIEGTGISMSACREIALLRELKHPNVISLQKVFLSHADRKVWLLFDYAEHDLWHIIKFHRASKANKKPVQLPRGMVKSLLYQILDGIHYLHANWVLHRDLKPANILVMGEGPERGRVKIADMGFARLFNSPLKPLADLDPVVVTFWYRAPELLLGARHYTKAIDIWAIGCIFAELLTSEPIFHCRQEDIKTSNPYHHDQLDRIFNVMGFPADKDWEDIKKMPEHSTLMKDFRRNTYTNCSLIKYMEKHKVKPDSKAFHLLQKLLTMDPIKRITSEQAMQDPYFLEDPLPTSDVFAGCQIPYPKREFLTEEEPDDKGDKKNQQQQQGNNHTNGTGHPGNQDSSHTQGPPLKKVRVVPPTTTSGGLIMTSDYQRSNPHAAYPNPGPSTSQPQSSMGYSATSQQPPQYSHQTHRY
T1 sequence (P24863 whole entry partner): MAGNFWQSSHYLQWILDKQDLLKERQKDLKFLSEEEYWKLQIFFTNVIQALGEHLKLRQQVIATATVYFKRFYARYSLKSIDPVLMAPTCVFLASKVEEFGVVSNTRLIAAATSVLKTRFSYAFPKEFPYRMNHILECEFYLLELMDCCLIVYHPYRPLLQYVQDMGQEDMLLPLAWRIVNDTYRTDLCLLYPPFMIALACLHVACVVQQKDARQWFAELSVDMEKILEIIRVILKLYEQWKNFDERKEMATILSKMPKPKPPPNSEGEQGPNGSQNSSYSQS

| pIC50 | IC50 [µM] | Compound |
| --- | --- | --- |
| 6.00 to 7.00 |  | Cc1n[nH]c2ncc(C(=O)N3CCCC(c4ccccc4)C3)cc12 (centres unmarked) [compound 66, (3-Methyl-1H-pyrazolo[3,4-b]pyridin-5-yl)-(3-phenyl-piperidin-1-yl)-methanone] |
| 7.00 to 8.00 |  | Cc1n[nH]c2ncc(C(=O)N3CCCC(c4ccc(Cl)cc4)C3)cc12 (centres unmarked) [compound 67, [3-(4-Chloro-phenyl)-piperidin-1-yl]-(3-methyl-1H-pyrazolo[3,4-b]pyridin-5-yl)-methanone] |
| > 8.00 |  | Cc1n[nH]c2ncc(C(=O)N3CCC(c4ccc(Cl)cc4)C3)cc12 (centres unmarked) [compound 68, [3-(4-Chloro-phenyl)-pyrrolidin-1-yl]-(3-methyl-1H-pyrazolo[3,4-b]pyridin-5-yl)-methanone] |
| 7.00 to 8.00 |  | Cc1n[nH]c2ncc(C(=O)N3CCCC3c3ccc(Cl)c(F)c3)cc12 (centres unmarked) [compound 69, [2-(4-Chloro-3-fluoro-phenyl)-pyrrolidin-1-yl]-(3-methyl-1H-pyrazolo[3,4-b]pyridin-5-yl)-methanone] |
| 7.00 to 8.00 |  | O=C(c1cnc2[nH]nc(C3CC3)c2c1)N1CCCC1c1ccc(Cl)cc1 (centres unmarked) [compound 70, [2-(4-Chloro-phenyl)-pyrrolidin-1-yl]-(3-cyclopropyl-1H-pyrazolo[3,4-b]pyridin-5-yl)-methanone] |
| 7.00 to 8.00 |  | O=C(c1cnc2[nH]nc(C(F)(F)F)c2c1)N1CCCC1c1ccc(Cl)cc1 (centres unmarked) [compound 71, [2-(4-Chloro-phenyl)-pyrrolidin-1-yl]-(3-trifluoromethyl-1H-pyrazolo[3,4-b]pyridin-5-yl)-methanone] |
|  | < 0.01 | Nc1n[nH]c2ccc(C(=O)N3CCCC3c3ccc(Br)cc3)cc12 (centres unmarked) [compound 74, (3-Amino-1H-indazol-5-yl)-[2-(4-bromo-phenyl)-pyrrolidin-1-yl]-methanone] |
|  | < 0.01 | Nc1n[nH]c2ccc(C(=O)N3CCC[C@H]3c3ccc(Br)cc3)cc12 [compound 76, (3-Amino-1H-indazol-5-yl)-[(S)-2-(4-bromo-phenyl)-pyrrolidin-1-yl]-methanone] |
|  | 0.1 to 1 | Nc1n[nH]c2ccc(C(=O)N3CCC[C@@H]3c3ccc(Br)cc3)cc12 [compound 77, (3-Amino-1H-indazol-5-yl)-[(R)-2-(4-bromo-phenyl)-pyrrolidin-1-yl]-methanone] |
|  | < 0.01 | Nc1n[nH]c2ccc(C(=O)N3CCC[C@H]3c3ccc(Cl)cc3)cc12 [compound 79, (3-Amino-1H-indazol-5-yl)-[(S)-2-(4-chloro-phenyl)-pyrrolidin-1-yl]-methanone] |
|  | 0.1 to 1 | Nc1n[nH]c2ccc(C(=O)N3CCC[C@@H]3c3ccc(Cl)cc3)cc12 [compound 80, (3-amino-1H-indazol-5-yl)-[(R)-2-(4-chloro-phenyl)-pyrrolidin-1-yl]-methanone] |
| 6.00 to 7.00 |  | Nc1n[nH]c2ccc(C(=O)N3CCCCC3Cc3ccccc3)cc12 (centres unmarked) [compound 81, (3-Amino-1H-indazol-5-yl)-(2-benzyl-piperidin-1-yl)-methanone] |
| 7.00 to 8.00 |  | Nc1n[nH]c2ccc(C(=O)N3CCCCC3c3ccccc3)cc12 (centres unmarked) [compound 82, (3-Amino-1H-indazol-5-yl)-(2-phenyl-piperidin-1-yl)-methanone] |
| 7.00 to 8.00 |  | Nc1n[nH]c2ccc(C(=O)N3CCCC3c3ccccc3)cc12 (centres unmarked) [compound 83, (3-Amino-1H-indazol-5-yl)-(2-phenyl-pyrrolidin-1-yl)-methanone] |
| 6.00 to 7.00 |  | Nc1n[nH]c2ccc(C(=O)N3CCC(c4ccccc4)C3)cc12 (centres unmarked) [compound 84, (3-Amino-1H-indazol-5-yl)-(3-phenyl-pyrrolidin-1-yl)-methanone] |
|  | < 0.01 | Nc1n[nH]c2ccc(C(=O)N3CCCC3c3ccc(F)cc3)cc12 (centres unmarked) [compound 85, (3-Amino-1H-indazol-5-yl)-[2-(4-fluoro-phenyl)-pyrrolidin-1-yl]-methanone] |
| 6.00 to 7.00 |  | Nc1n[nH]c2ccc(C(=O)N3CC[C@H](c4ccccc4)C3)cc12 [compound 87, (3-Amino-1H-indazol-5-yl)-((R)-3-phenyl-pyrrolidin-1-yl)-methanone] |
| 6.00 to 7.00 |  | Nc1n[nH]c2ccc(C(=O)N3CC[C@@H](c4ccccc4)C3)cc12 [compound 88, (3-Amino-1H-indazol-5-yl)-((S)-3-phenyl-pyrrolidin-1-yl)-methanone] |
| 7.00 to 8.00 |  | Nc1n[nH]c2ccc(C(=O)N3CCC[C@@H]3c3ccccc3)cc12 [compound 91] |
|  | 0.01 to 0.1 | Nc1n[nH]c2ccc(C(=O)N3CCCC[C@H]3c3ccc(F)cc3)cc12 [compound 92, (3-Amino-1H-indazol-5-yl)-[(S)-2-(4-fluoro-phenyl)-piperidin-1-yl]-methanone] |
| 7.00 to 8.00 |  | Nc1n[nH]c2ncc(C(=O)N3CCC[C@H]3c3ccc(Cl)cc3)cc12 [compound 96, (3-Amino-1H-pyrazolo[3,4-b]pyridin-5-yl)-[(S)-2-(4-chloro-phenyl)-pyrrolidin-1-yl]-methanone] |

| pIC50 | IC50 [µM] | Compound |
| --- | --- | --- |
| 7.00 to 8.00 |  | Nc1n[nH]c2ncc(C(=O)N3CCC[C@H]3c3ccc(Br)cc3)cc12 [compound 98, (3-Amino-1H-pyrazolo[3,4-b]pyridin-5-yl)-[(S)-2-(4-bromo-phenyl)-pyrrolidin-1-yl]-methanone] |
| 7.00 to 8.00 |  | Nc1n[nH]c2ccc(C(=O)N3CCC3c3ccc(Cl)cc3)cc12 (centres unmarked) [compound 104, (3-Amino-1H-indazol-5-yl)-[2-(4-chloro-phenyl)-azetidin-1-yl]-methanone] |
|  | 0.01 to 0.1 | Nc1n[nH]c2ccc(C(=O)N3CCC3c3ccc(F)cc3)cc12 (centres unmarked) [compound 105, (3-Amino-1H-indazol-5-yl)-[2-(4-fluoro-phenyl)-azetidin-1-yl]-methanone] |
| 6.00 to 7.00 |  | Nc1n[nH]c2ccc(C(=O)N3CCCCCC3c3ccc(Cl)cc3)cc12 (centres unmarked) [compound 106, (3-Amino-1H-indazol-5-yl)-[2-(4-chloro-phenyl)-azepan-1-yl]-methanone] |
| 6.00 to 7.00 |  | Nc1n[nH]c2ccc(C(=O)N3CCCCCC3c3cccc(F)c3)cc12 (centres unmarked) [compound 107, (3-Amino-1H-indazol-5-yl)-[2-(3-fluoro-phenyl)-azepan-1-yl]-methanone] |
| 7.00 to 8.00 |  | Nc1n[nH]c2ccc(C(=O)N3CCCC3c3ccc(C(F)(F)F)cc3)cc12 (centres unmarked) [compound 112, (3-Amino-1H-indazol-5-yl)-[2-(4-trifluoromethyl-phenyl)-pyrrolidin-1-yl]-methanone] |
| 6.00 to 7.00 |  | CCOc1ccccc1C1CCCN1C(=O)c1ccc2[nH]nc(N)c2c1 (centres unmarked) [compound 113, (3-Amino-1H-indazol-5-yl)-[2-(2-ethoxy-phenyl)-pyrrolidin-1-yl]-methanone] |
| 6.00 to 7.00 |  | Nc1n[nH]c2ccc(C(=O)N3CCCC3c3ccccc3OCC(F)(F)F)cc12 (centres unmarked) [compound 114, (3-Amino-1H-indazol-5-yl)-{2-[2-(2,2,2-trifluoro-ethoxy)-phenyl]-pyrrolidin-1-yl}-methanone] |
| 6.00 to 7.00 |  | Nc1n[nH]c2ccc(C(=O)N3CCCC(c4ccccc4)C3)cc12 (centres unmarked) [compound 115] |
| 6.00 to 7.00 |  | Nc1n[nH]c2ccc(C(=O)N3CCCC(c4ccc(Cl)cc4)C3)cc12 (centres unmarked) [compound 116, (3-Amino-1H-indazol-5-yl)-[3-(4-chloro-phenyl)-piperidin-1-yl]-methanone] |
|  | 0.01 to 0.1 | Nc1n[nH]c2ccc(C(=O)N3CCC(c4ccc(Cl)cc4)C3)cc12 (centres unmarked) [compound 117, (3-Amino-1H-indazol-5-yl)-[3-(4-chloro-phenyl)-pyrrolidin-1-yl]-methanone] |
|  | 0.1 to 1 | Nc1n[nH]c2ccc(C(=O)N3CCC[C@@H]3c3ccc(F)cc3)cc12 [compound 120, (3-Amino-1H-indazol-5-yl)-[(R)-2-(4-fluoro-phenyl)-pyrrolidin-1-yl]-methanone] |
| 6.00 to 7.00 |  | Cc1n[nH]c2ncc(C(=O)N3CCC[C@H]3c3ccncc3)cc12 [compound 122, (3-Methyl-1H-pyrazolo[3,4-b]pyridin-5-yl)-((S)-2-pyridin-4-yl-pyrrolidin-1-yl)-methanone] |
|  | 0.01 to 0.1 | Nc1n[nH]c2ccc(C(=O)N3CCC[C@H]3c3ccc(F)cc3)cc12 [compound 124, (3-Amino-1H-indazol-5-yl)-[(S)-2-(4-fluoro-phenyl)-pyrrolidin-1-yl]-methanone] |
| 6.00 to 7.00 |  | Cc1n[nH]c2ncc(C(=O)N3CC(O)CC3c3ccc(F)cc3)cc12 (centres unmarked) [compound 127, [2-(4-Fluoro-phenyl)-4-hydroxy-pyrrolidin-1-yl]-(3-methyl-1H-pyrazolo[3,4-b]pyridin-5-yl)-methanone] |
| 6.00 to 7.00 |  | Cc1n[nH]c2ncc(C(=O)N3CCC[C@H]3c3cccnc3)cc12 [compound 129, (3-Methyl-1H-pyrazolo[3,4-b]pyridin-5-yl)-((S)-2-pyridin-3-yl-pyrrolidin-1-yl)-methanone] |
| 6.00 to 7.00 |  | Nc1n[nH]c2ccc(C(=O)N3CCC[C@H]3c3ccccc3)cc12 [compound 131, (3-Amino-1H-indazol-5-yl)-((S)-2-phenyl-pyrrolidin-1-yl)-methanone] |
| 6.00 to 7.00 |  | Nc1n[nH]c2ccc(C(=O)N3CCC[C@@H]3c3ccccc3)cc12 [compound 132, (3-Amino-1H-indazol-5-yl)-((R)-2-phenyl-pyrrolidin-1-yl)-methanone] |
|  | 0.01 to 0.1 | Nc1n[nH]c2ccc(C(=O)N3CC[C@H]3c3ccc(F)cc3)cc12 [compound 134, (3-Amino-1H-indazol-5-yl)-[(S)-2-(4-fluoro-phenyl)-azetidin-1-yl]-methanone] |
|  | 0.1 to 1 | Nc1n[nH]c2ccc(C(=O)N3CC[C@@H]3c3ccc(F)cc3)cc12 [compound 135, (3-Amino-1H-indazol-5-yl)-[(R)-2-(4-fluoro-phenyl)-azetidin-1-yl]-methanone] |
